Results taken from US11111245B2, “Derivatives of N-cycloalkyl/heterocycloalkyl-4-(imidazo[1,2-a]pyridine)pyrimidin-2-amine as therapeutic agents” (Aucentra Therapeutics Pty Ltd, priority 2017, dated 2021).

How the values were obtained:
CDK4/D1 = CDK4/D1 (Homo sapiens, UniProt P11802); assay: ADP Glo Kinase assay CDK4/D1; type: biochemical; conditions: CDK4D1; for Ki: read-out: CDK inhibition, Ki (μM) CDK4D1; for remaining activity at 10 µM: compound at 10 μM, read-out: residual activity (%) at 10 μM CDK4D1
Outline: (§1)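 Compounds tested at 10 concentrations (10 μM to 0.5 nM, 1:3 steps) against CDK4/D1 or CDK6/D3, RB-CTF substrate, Tris pH 7.5 buffer with MgCl2, DTT and BSA.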

CDK6/D3 = CDK6/D3 (Homo sapiens, UniProt Q00534); assay: ADP Glo Kinase assay CDK6/D3; type: biochemical; conditions: CDK6D3; for Ki: read-out: CDK inhibition, Ki (μM) CDK6D3; for remaining activity at 10 µM: compound at 10 μM, read-out: residual activity (%) at 10 μM CDK6D3
Outline: as §1

A2780 = assay: MTT cell viability assay, A2780 ovarian cancer cell line (72 h); type: cell-based; conditions: Homo sapiens, A2780, 72 h, read-out: 72 h Antiproliferative activity, GI50 (μmol/L) ± SD
Protocol: (§2) Compounds from Example 1 were subjected to a standard MTT (3-(4,5-dimethylthiazol-2-yl)-2,5-diphenyltetrazolium bromide) and resazurin assays on solid tumour cell lines and leukemia cell lines, respectively, as previously reported (Wang S et al., J Med Chem 47:1662-1675, 2004 and Diab S. et al. CheMedChem 9:962-972, 2014). Compound concentrations required to inhibit 50% of cell growth (GI50) were calculated using non-linear regression analysis.

MCF-7 = assay: MTT cell viability assay, MCF-7 breast cancer cell line (72 h); type: cell-based; conditions: Homo sapiens, MCF7, MCF-7, 72 h, read-out: 72 h Antiproliferative activity, GI50 (μmol/L) ± SD
Protocol: as §2

MOLM13 = assay: Resazurin cell viability assay, MOLM13 leukaemia cell line (72 h); type: cell-based; conditions: Homo sapiens, MOLM-13, MOLM13, 72 h, read-out: 72 h Antiproliferative activity, GI50 (μmol/L) ± SD
Protocol: as §2

MDA-MB-453 = assay: MTT cell viability assay, MDA-MB-453 breast cancer cell line (72 h); type: cell-based; conditions: Homo sapiens, MDA-MB-453, 72 h, read-out: 72 h Antiproliferative activity, GI50 (μmol/L) ± SD
Protocol: as §2

U937 = assay: Resazurin cell viability assay, U937 leukaemia cell line (72 h); type: cell-based; conditions: Homo sapiens, U-937, U937, 72 h, read-out: 72 h Antiproliferative activity, GI50 (μmol/L) ± SD
Protocol: as §2

MDA-MB-468 = assay: MTT cell viability assay, MDA-MB-468 breast cancer cell line (72 h); type: cell-based; conditions: Homo sapiens, MDA-MB-468, 72 h, read-out: 72 h Antiproliferative activity, GI50 (μmol/L) ± SD
Protocol: as §2

NB4 = assay: Resazurin cell viability assay, NB4 leukaemia cell line (72 h); type: cell-based; conditions: Homo sapiens, NB-4, NB4, 72 h, read-out: 72 h Antiproliferative activity, GI50 (μmol/L) ± SD
Protocol: as §2

MDA-MB-231 = assay: MTT cell viability assay, MDA-MB-231 breast cancer cell line (72 h); type: cell-based; conditions: Homo sapiens, MDA-MB-231, 72 h, read-out: 72 h Antiproliferative activity, GI50 (μmol/L) ± SD
Protocol: as §2

PC3 = assay: MTT cell viability assay, PC3 prostate cancer cell line (72 h); type: cell-based; conditions: Homo sapiens, PC-3, PC3, 72 h, read-out: 72 h Antiproliferative activity, GI50 (μmol/L) ± SD
Protocol: as §2

CDKs and other kinases [1] = biological target: T1, CDKs and other kinases (Homo sapiens, UniProt P06493); assay: Radiometric kinase assay (Eurofins Pharma Discovery or Reaction Biology Corporation Kinase Profiler); type: biochemical; conditions: CDK1B; for Ki: read-out: CDK inhibition, Ki (μM) CDK1B; for remaining activity at 10 µM: compound at 10 μM, read-out: residual activity (%) at 10 μM CDK1B
T1 construct: other: CDK1B; residual activity (%) at 10 μM CDK1B; compound at 10 μM
Outline: (§3)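 Other CDKs and further kinases were profiled externally by radiometric assay. In-house ADP Glo assays covered CDK4/D1 and CDK6/D3 (RB-CTF substrate, pH 7.5 Tris buffer with MgCl2, DTT, BSA) and CDK9/T1 (RBER-IRStide substrate), 40 min at 37° C.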

CDKs and other kinases [2] = biological target: T2, CDKs and other kinases (Homo sapiens, UniProt P50613); assay: as above; type: biochemical; conditions: CDK7H; for Ki: read-out: CDK inhibition, Ki (μM) CDK7H; for remaining activity at 10 µM: compound at 10 μM, read-out: residual activity (%) at 10 μM CDK7H
T2 construct: other: CDK7H; residual activity (%) at 10 μM CDK7H; compound at 10 μM
Outline: as §3

CDKs and other kinases [3] = biological target: T3, CDKs and other kinases (Homo sapiens, UniProt P24941); assay: as above; type: biochemical; conditions: CDK2A; for Ki: read-out: CDK inhibition, Ki (μM) CDK2A; for remaining activity at 10 µM: compound at 10 μM, read-out: residual activity (%) at 10 μM CDK2A
T3 construct: other: CDK2A; residual activity (%) at 10 μM CDK2A; compound at 10 μM
Outline: as §3

T47D = assay: MTT cell viability assay, T47D breast cancer cell line (72 h); type: cell-based; conditions: Homo sapiens, read-out: 72 h Antiproliferative activity, GI50 (μmol/L) ± SD
Protocol: as §2

LNCap = assay: MTT cell viability assay, LNCap prostate cancer cell line (72 h); type: cell-based; conditions: Homo sapiens, read-out: 72 h Antiproliferative activity, GI50 (μmol/L) ± SD
Protocol: as §2

leukemia cell lines = assay: Resazurin cell viability assay on leukemia cell lines (72 h growth inhibition, GI50); type: cell-based; conditions: Homo sapiens, MV4-11 cells
Outline: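 GI50 values from non-linear regression of growth inhibition; read-out was MTT for solid tumour cells, resazurin for leukaemia cells.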

CDK9/T1 = CDK9/T1 (Homo sapiens, UniProt P50750); assay: ADP Glo Kinase assay CDK9/T1; type: biochemical; conditions: CDK9T1; read-out: CDK inhibition, Ki (μM) CDK9T1
Outline: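 Luminescent ADP detection measured activity after a 40 min, 37° C ATP-initiated reaction, using RB-CTF for CDK4/D1 and CDK6/D3 and RBER-IRStide for CDK9/T1. Controls lacked or contained kinase. Values: IC50 by four-parameter nonlinear regression, Ki from ATP Km.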

CDK6/D3, sequence (Q00534 whole entry): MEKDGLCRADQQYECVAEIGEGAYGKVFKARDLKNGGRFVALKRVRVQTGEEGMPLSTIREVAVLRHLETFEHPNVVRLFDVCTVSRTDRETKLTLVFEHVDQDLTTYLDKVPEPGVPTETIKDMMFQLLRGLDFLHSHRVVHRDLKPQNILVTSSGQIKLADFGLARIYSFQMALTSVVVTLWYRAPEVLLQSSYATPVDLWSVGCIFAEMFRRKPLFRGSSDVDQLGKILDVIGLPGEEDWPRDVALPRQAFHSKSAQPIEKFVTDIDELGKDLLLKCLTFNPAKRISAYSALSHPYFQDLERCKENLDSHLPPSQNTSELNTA
CDK6/D3, sequence (P30281 whole entry partner): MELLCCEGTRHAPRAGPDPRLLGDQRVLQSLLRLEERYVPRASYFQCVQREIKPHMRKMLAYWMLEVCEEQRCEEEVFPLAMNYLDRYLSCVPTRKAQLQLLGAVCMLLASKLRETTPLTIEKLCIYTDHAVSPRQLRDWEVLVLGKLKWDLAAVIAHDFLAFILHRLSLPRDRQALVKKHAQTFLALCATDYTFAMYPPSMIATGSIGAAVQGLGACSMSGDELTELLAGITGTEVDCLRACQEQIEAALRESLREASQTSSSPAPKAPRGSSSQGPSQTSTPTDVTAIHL
T2 sequence (P50613 whole entry): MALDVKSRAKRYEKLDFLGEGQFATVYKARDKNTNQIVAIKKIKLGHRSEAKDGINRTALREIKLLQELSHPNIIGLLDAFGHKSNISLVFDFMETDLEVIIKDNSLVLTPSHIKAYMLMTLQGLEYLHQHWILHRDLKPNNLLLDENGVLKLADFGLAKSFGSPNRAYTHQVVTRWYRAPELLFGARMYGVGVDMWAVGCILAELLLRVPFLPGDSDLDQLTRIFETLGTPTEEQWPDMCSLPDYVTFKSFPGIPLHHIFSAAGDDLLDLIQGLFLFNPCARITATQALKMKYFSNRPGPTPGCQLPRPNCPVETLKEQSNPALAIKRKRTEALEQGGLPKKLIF
CDK9/T1, sequence (P50750 whole entry): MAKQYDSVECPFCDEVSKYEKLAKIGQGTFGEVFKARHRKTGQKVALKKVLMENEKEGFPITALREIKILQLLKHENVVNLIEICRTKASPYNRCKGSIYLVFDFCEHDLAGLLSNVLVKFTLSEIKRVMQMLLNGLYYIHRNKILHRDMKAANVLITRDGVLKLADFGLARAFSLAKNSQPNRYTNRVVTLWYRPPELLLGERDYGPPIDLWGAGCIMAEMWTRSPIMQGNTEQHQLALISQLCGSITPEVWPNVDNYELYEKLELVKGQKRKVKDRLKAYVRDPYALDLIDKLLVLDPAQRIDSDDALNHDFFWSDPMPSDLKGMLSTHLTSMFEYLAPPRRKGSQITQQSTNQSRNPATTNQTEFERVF
CDK9/T1, sequence (O60563 whole entry partner): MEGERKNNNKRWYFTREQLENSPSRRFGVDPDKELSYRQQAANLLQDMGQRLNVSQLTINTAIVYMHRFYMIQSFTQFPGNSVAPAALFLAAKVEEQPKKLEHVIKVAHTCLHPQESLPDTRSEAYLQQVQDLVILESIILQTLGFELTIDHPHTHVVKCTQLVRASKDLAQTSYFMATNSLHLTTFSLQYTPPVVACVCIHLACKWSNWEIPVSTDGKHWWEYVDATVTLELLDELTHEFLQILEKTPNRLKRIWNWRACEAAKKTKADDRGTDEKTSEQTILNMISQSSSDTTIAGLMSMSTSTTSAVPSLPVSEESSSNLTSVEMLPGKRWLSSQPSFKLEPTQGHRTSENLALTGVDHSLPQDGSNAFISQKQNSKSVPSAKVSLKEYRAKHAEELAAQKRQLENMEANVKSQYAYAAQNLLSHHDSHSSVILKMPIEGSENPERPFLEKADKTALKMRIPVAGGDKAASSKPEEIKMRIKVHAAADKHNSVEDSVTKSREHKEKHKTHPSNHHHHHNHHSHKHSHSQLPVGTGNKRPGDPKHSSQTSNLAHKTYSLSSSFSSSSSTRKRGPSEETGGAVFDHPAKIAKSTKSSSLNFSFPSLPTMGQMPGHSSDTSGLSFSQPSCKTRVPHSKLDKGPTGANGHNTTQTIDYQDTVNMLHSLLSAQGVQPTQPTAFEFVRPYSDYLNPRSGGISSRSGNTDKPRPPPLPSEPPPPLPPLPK
T1 sequence (P06493 whole entry): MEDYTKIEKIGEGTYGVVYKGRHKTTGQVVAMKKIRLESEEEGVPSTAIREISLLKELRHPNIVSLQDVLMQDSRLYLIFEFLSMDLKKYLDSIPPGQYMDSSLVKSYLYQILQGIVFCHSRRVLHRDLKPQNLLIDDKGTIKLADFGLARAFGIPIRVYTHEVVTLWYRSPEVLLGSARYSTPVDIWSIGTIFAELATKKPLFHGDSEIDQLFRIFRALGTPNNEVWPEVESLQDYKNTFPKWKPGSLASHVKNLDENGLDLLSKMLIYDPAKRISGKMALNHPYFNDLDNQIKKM
CDK4/D1, sequence (P11802 whole entry): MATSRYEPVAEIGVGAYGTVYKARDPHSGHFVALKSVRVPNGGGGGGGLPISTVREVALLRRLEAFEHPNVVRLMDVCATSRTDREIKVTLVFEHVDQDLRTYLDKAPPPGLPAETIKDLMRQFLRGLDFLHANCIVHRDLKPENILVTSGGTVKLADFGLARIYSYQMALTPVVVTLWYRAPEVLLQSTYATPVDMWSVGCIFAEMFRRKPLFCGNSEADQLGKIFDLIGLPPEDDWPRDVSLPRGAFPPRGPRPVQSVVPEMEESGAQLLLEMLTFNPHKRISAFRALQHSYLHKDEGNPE
CDK4/D1, sequence (P24385 whole entry partner): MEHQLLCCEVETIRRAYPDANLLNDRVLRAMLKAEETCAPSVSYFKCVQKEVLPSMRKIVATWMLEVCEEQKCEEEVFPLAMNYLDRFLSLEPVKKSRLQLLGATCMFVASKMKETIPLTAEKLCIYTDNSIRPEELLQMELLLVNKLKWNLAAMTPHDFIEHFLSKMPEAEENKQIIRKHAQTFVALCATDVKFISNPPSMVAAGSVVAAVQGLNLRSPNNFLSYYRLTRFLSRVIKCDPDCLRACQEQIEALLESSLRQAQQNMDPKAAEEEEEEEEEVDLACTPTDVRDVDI

SMILES	Ki (CDK4/D1)	Ki (CDK6/D3)	Ki (CDKs and other kinases [1])	Ki (CDKs and other kinases [2])	Ki (CDKs and other kinases [3])	GI50 (leukemia cell lines)	Ki (CDK9/T1)	remaining activity at 10 µM (CDK4/D1)	remaining activity at 10 µM (CDK6/D3)	remaining activity at 10 µM (CDKs and other kinases [1])	remaining activity at 10 µM (CDKs and other kinases [2])	remaining activity at 10 µM (CDKs and other kinases [3])	also measured
Cc1cnc(N[C@H]2CC[C@H](N)CC2)nc1-c1cnc2ccc(-c3ccccc3)cn12 [Compound 10, (1r,4r)-N^1-(5-Methyl-4-(6-phenylimidazo[1,2-a]pyridin-3-yl)pyrimidin-2-yl)cyclohexane-1,4-diamine]	2.62 µM	1.54 µM	1.53 µM	0.6 µM	0.43 µM	0.059 ± 0.008 µM	0.008 µM	–	–	–	–	–	GI50 (A2780): 0.278 ± 0.032 µmol/L; GI50 (MCF-7): 0.247 ± 0.014 µmol/L; GI50 (MOLM13): 0.019 ± 0.001 µmol/L; GI50 (MDA-MB-453): 0.049 ± 0.012 µmol/L; GI50 (U937): 0.156 ± 0.05 µmol/L; GI50 (MDA-MB-468): 0.42 ± 0.07 µmol/L; GI50 (NB4): 0.153 ± 0.051 µmol/L; GI50 (MDA-MB-231): 0.418 ± 0.123 µmol/L; GI50 (PC3): 0.289 ± 0.098 µmol/L; GI50 (T47D): 0.834 ± 0.066 µmol/L; GI50 (LNCap): 0.202 ± 0.052 µmol/L
N[C@H]1CC[C@H](Nc2ncc(F)c(-c3cnc4ccc(NCc5ccc(F)cc5)cn34)n2)CC1 [Compound 7, (1r,4r)-N^1-(5-Fluoro-4-(6-((4-fluorobenzyl)amino)imidazo [1,2-a]pyridin-3-yl)pyrimidin-2-yl)cyclohexane-1,4-diamine]	0.691 µM	1.71 µM	0.42 µM	0.73 µM	0.24 µM	0.075 ± 0.011 µM	0.006 µM	–	–	–	–	–	GI50 (A2780): 0.274 ± 0.03 µmol/L; GI50 (MCF-7): 0.218 ± 0.013 µmol/L; GI50 (MOLM13): 0.015 ± 0.006 µmol/L; GI50 (MDA-MB-453): 0.931 ± 0.269 µmol/L; GI50 (U937): 0.156 ± 0.061 µmol/L; GI50 (MDA-MB-468): 0.08 ± 0.015 µmol/L; GI50 (NB4): 0.16 ± 0.052 µmol/L; GI50 (MDA-MB-231): 0.035 ± 0.008 µmol/L; GI50 (PC3): 0.087 ± 0.04 µmol/L; GI50 (T47D): 0.616 ± 0.086 µmol/L
Cc1cnc(N[C@H]2CC[C@H](O)CC2)nc1-c1cnc2ccc(Nc3cncnc3)cn12 [Compound 108, (1r,4r)-4-((5-Methyl-4-(6-(pyrimidin-5-ylamino)imidazo [1,2-a]pyridin-3-yl)pyrimidin-2-yl)amino)cyclohexan-1-ol]	–	–	0.16 µM	4.76 µM	0.035 µM	> 10 µM	0.018 µM	70%	68%	–	–	–	–
N[C@H]1CC[C@H](Nc2ncc(Cl)c(-c3cnc4ccc(-c5cccnc5)cn34)n2)CC1 [Compound 35, (1r,4r)-N^1-(5-Chloro-4-(6-(pyridin-3-yl)imidazo[1,2-a]pyridin-3-yl)pyrimidin-2-yl)cyclohexane-1,4-diamine]	0.79 µM	0.394 µM	0.88 µM	0.27 µM	0.26 µM	0.011 ± 0.002 µM	0.007 µM	–	–	–	–	–	–
COc1ccc(-c2ccc3ncc(-c4nc(N[C@H]5CC[C@H](N)CC5)ncc4C)n3c2)cn1 [Compound 58, (1r,4r)-N^1-(4-(6-(6-Methoxypyridin-3-yl)imidazo[1,2-a]pyridin-3-yl)-5-methylpyrimidin-2-yl)cyclohexane-1,4-diamine]	–	–	–	–	–	0.177 ± 0.005 µM	0.17 µM	69%	86%	71%	22%	70%	–
Cc1cnc(N[C@]23C[C@@]4(C)C[C@](C)(C[C@](O)(C4)C2)C3)nc1-c1cnc2ccc(Nc3cncnc3)cn12 [Compound 102, (1s,3R,5S,7r)-3,5-Dimethyl-7-((5-methyl-4-(6-(pyrimidin-5-ylamino)imidazo[1,2-a]pyridin-3-yl)pyrimidin-2-yl)amino)adamantan-1-ol]	–	–	–	–	–	0.059 ± 0.019 µM	0.109 µM	73%	100%	36%	85%	22%	–
N[C@H]1CC[C@H](Nc2ncc(F)c(-c3cnc4ccc(-c5ccc(C(=O)N6CCNCC6)cc5)cn34)n2)CC1 [Compound 117, (4-(3-(2-(((1r,4r)-4-Aminocyclohexyl)amino)-5-fluoropyrimidin-4-yl)imidazo[1,2-a]pyridin-6-yl)phenyl) (piperazin-1-yl)methanone]	–	–	–	–	–	0.045 ± 0.004 µM	0.004 µM	0%	12%	10%	5%	4%	–
Cc1cnc(NC2CCC(N(C)C)CC2)nc1-c1cnc2ccc(Nc3cccnc3)cn12 (centres unmarked) [Compound 98, N^1,N^1-Dimethyl-N^4-(5-Methyl-4-(6-(pyridin-3-ylamino)imidazo[1,2-a]pyridin-3-yl)pyrimidin-2-yl)cyclohexane-1,4-diamine]	0.78 µM	0.53 µM	1.5 µM	1.67 µM	0.31 µM	0.153 ± 0.021 µM	0.004 µM	–	–	–	–	–	–
